Measured values as given in patent publication US12415832B2, “B-catenin/B-cell Lymphoma 9 protein-protein interaction inhibiting peptidomimetics” (University of South Florida, priority 2019, dated 2025).
Read-outs that look alike come from different tables or passages of the source.

How the values were obtained:
β-catenin/BCL9 PPI [1] = molecular target: T1, β-catenin/BCL9 PPI (Homo sapiens, UniProt P35222); test: AlphaScreen competitive inhibition assay of β-catenin/BCL9 PPI; assay type: binding; conditions: for IC50 / Ki: AlphaScreen, mean ± SD; for IC50: 5 nM biotinylated BCL9, 40 nM His6-tagged FL-β-catenin; for Ki: Ki derived from IC50 by method of Nikolovska-Coleska et al.
T1 construct: 40 nM His6-tagged FL-β-catenin
T1 sequence (P35222 1-781): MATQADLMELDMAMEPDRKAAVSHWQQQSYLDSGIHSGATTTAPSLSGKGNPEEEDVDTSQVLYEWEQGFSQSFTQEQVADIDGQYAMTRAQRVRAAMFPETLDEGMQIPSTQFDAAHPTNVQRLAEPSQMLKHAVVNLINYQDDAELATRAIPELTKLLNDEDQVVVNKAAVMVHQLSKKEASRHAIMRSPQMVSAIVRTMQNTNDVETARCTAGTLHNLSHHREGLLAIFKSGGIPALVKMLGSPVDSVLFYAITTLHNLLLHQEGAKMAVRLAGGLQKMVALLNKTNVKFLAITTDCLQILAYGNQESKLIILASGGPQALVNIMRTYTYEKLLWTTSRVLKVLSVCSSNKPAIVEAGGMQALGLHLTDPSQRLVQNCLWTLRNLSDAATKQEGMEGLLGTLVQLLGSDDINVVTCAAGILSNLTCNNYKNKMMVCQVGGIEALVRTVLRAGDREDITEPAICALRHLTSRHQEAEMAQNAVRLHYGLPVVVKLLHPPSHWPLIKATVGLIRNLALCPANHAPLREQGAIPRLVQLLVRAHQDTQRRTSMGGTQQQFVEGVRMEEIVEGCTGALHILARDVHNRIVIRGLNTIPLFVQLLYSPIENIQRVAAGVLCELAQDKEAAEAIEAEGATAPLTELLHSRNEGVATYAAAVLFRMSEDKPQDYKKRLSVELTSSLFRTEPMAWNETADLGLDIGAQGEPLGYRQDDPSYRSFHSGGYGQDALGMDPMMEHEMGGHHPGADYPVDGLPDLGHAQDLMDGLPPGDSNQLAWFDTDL
Protocol: For the competitive inhibition assays of β-catenin/BCL9 PPI, the negative control (equivalent to 0% inhibition) refers to 5.0 nM biotinylated BCL9, 40 nM His6-tagged FL-β-catenin, and 10 μg/mL of donor and acceptor beads in a final volume of 25 μL of assay buffer, but no tested inhibitor present. The positive control (equivalent to 100% inhibition) refers to 5.0 nM biotinylated BCL9 and 10 μg/mL of donor and acceptor beads in a final volume of 25 μL of assay buffer. For the β-catenin/BCL9 assay, 5 nM biotinylated BCL9 and 40 nM His6-tagged FL-β-catenin were incubated in assay buffer at 4° C. for 30 min. Different concentrations of the tested inhibitor were added and incubated in 20 μL of assay buffer at 4° C. for another 1 h. All of the above assay plates were covered and gently mixed on an orbital shaker. The donor and acceptor beads were then added to the plates to a final concentration of 10 μg/mL in 25 μL of assay buffer. The mixture was incubated for 1 h at 4° C. before detection. The IC50 value was determined by nonlinear least-squares analysis of GraphPad Prism 5.0. The Ki values were derived from the IC50 values using a method reported by Nikolovska-Coleska et al. The assays were conducted under the conditions reported by Nikolovska-Coleska et al.'s equation for determining the Ki values. All of the experiments were performed in triplicate. The results were expressed as mean±standard deviation.

SW480 cell = assay type: cell-based; conditions: for IC50: 72 h
Protocol: Colorectal cancer cell lines SW480 were seeded in 96-well plates at 5×10^3 cells/well, maintained overnight at 37° C., and incubated in the presence of inhibitors at various concentrations. Cell viability was monitored after 72 h using a freshly prepared mixture of one-part phenazine methosulfate (PMS, Sigma) solution (0.92 mg/mL) and 19 parts MTs agent (3-(4,5-dimethylthiazol-2-yl)-5-(3-carboxymethoxyphenyl)-2-(4-sulfophenyl)-2H-tetrazolium, inner salt, Promega) solution (2 mg/mL). Cells were incubated in 10 μL of this solution at 37° C. for 3 h, and A490 was measured. The effect of each compound is expressed as the concentration required to reduce A490 by 50% (IC50) relative to vehicle-treated cells. Experiments were performed in triplicate and repeated for three times.

A549 cell = assay type: cell-based; conditions: 72 h
β-catenin = molecular target: T2, β-catenin (Homo sapiens, UniProt P35222); test: FP assay, binding of peptides with β-catenin (Kd); conditions: for decrease in binding affinity relative to 2: Ala substitution; for Kd: fluorescence polarization, 50 nM FITC labeled peptide, 1×PBS
T2 sequence (P35222 1-781): T1 sequence (P35222 1-781)

[2] = test system: Wnt/β-catenin signaling transactivation (TOPFlash); test: Wnt-responsive TOPFlash luciferase reporter assay in SW480 cells; conditions: for IC50: read-out: TOPFlash luciferase IC50 (estimated), 24 h
From the text: Wnt-specific TOPFlash/FOPFlash luciferase reporter assays were used to evaluate the effects of these compounds on β-catenin-dependent transcription. For the TOPFlash reporter construct, the firefly luciferase reporter gene was placed downstream of three wild-type Tcf binding sites. For the FOPFlash reporter construct, the firefly luciferase reporter gene was place downstream of three mutant Tcf binding sites. The high expression of firefly luciferase in TOPFlash assays was controlled by tandem Tcf binding sites. The renilla luciferase reporter construct (pCMV-RL) was used as the internal control to normalize luciferase reporter signals and eliminate systematic errors such as cell viability, transfection effect, etc.
SW480 cells were co-transfected with 60 ng of the TOPFlash or FOPFlash firefly luciferase reporter gene and 40 ng of renilla luciferase pCMV-RL normalization reporter. Cells were cultured in DMEM and 10% FBS at 37° C. for 24 h, and different concentrations of inhibitors or DMSO were added. After 24 h, the luciferase reporter activity was measured using the Dual-Glo system (E2940, Promega). Normalized luciferase activity in response to the treatment with inhibitors was compared with that obtained from the cells treated with DMSO. Experiments were performed in triplicate.

β-catenin/BCL9 PPI [3] = test: Co-immunoprecipitation in HCT116 cells; assay type: cell-based; conditions: 24 h
Protocol: β-Catenin signaling hyperactive HCT116 cancer cells at […] were treated with different concentrations of the inhibitor for 24 h. Cells were then lysed in buffer containing 50 mM Tris, pH 7.4, 150 mM NaCl, 1% Nonidet […], 2 mM EDTA, and protease inhibitors. The cell lysates were then preadsorbed to A/G plus agarose (sc-2003, Santa Cruz Biotechnology) at 4° C. for 1 h. Preadsorbed lysates were incubated with a specific primary antibody against […] (610153, BD Biosciences) overnight at 4° C. A/G plus agarose was then added to the lysate mixture and incubated for 3 h. The beads were washed four times with the lysis buffer at 4° C. The bound protein was eluted by boiling in the SDS sample buffer and loaded onto 8% SDS polyacrylamide gel for electrophoretic analysis. Separated proteins were transferred onto nitrocellulose membranes for immunoblot analysis. The antibodies against BCL9 (ab37305, Abcam), β-catenin (610153, BD Biosciences), and […] (sc-55529, Santa Cruz Biotechnology, Inc.) were incubated with the membranes, respectively. IRDye 680LT goat anti mouse IgG (827-11080, LiCOR) and IRDye 800CW goat anti rabbit IgG (926-32211, LiCOR) were used as the secondary antibodies. The images were detected by the Odyssey Infrared Imaging System (LiCOR). Experiments were performed in duplicate.

| Molecule | IC50 (β-catenin/BCL9 PPI [1]) | Ki (β-catenin/BCL9 PPI [1]) | IC50 (SW480 cell) | IC50 (A549 cell) | decrease in binding affinity relative to 2 (β-catenin) | Kd (β-catenin) | IC50 [2] | improvement of IC50 compared to the peptide 1 (β-catenin/BCL9 PPI [1]) | improvement of Ki compared to the peptide 1 (β-catenin/BCL9 PPI [1]) | effect on SW480 cell proliferation, in words (SW480 cell; MTS) | improvement of Kd compared to the peptide 1 (β-catenin) | disruption of β-catenin/BCL9 PPI in cells (co-IP) (β-catenin/BCL9 PPI [3]) | TOPFlash luciferase activity, result in words [2] | IC50 (SW480 cell; SW480 cell, hyperactive β-catenin signaling, read-out: MTS IC50 ± SD) |
| --- | --- | --- | --- | --- | --- | --- | --- | --- | --- | --- | --- | --- | --- | --- |
| CCC(C)[C@@H](CN(CC(=O)N[C@@H](CC(C)C)CN(CC(=O)N[C@@H](C)CN(CC(N)=O)S(=O)(=O)Cc1ccccc1)S(=O)(=O)CC(C)C)S(C)(=O)=O)NC(=O)CN(C[C@H](CCCNC(=N)N)NC(=O)CN(C[C@H](CC(C)C)NC(=O)CN(C[C@@H](NC(=O)CN(C[C@H](CC(C)C)NC(=O)CN(C[C@H](CCCNC(=N)N)NC(=O)CN(C[C@H](CCCNC(=N)N)NC(=O)CN(C[C@H](CCC(=O)O)NC(C)=O)S(=O)(=O)CCN)S(C)(=O)=O)S(C)(=O)=O)S(=O)(=O)CCN)C(C)O)S(=O)(=O)CC(C)C)S(=O)(=O)CCN)S(=O)(=O)CC(C)C (some centres unmarked) [Peptide 7] | 1 ± 0.1 µM | 0.89 ± 0.08 µM | 46.6 ± 5.57 µM | 120 ± 13.6 µM | about 1.5 fold | 0.7 µM |  |  |  |  |  |  |  |  |
| CCC(C)[C@@H](CN(CC(=O)N[C@@H](CC(C)C)CN(CC(=O)N[C@@H](CC(C)C)CN(CC(N)=O)S(=O)(=O)Cc1ccccc1)S(=O)(=O)CC(C)C)S(C)(=O)=O)NC(=O)CN(C[C@H](CCCNC(=N)N)NC(=O)CN(C[C@H](C)NC(=O)CN(C[C@@H](NC(=O)CN(C[C@H](CC(C)C)NC(=O)CN(C[C@H](CCCNC(=N)N)NC(=O)CN(C[C@H](CCCNC(=N)N)NC(=O)CN(C[C@H](CCC(=O)O)NC(C)=O)S(=O)(=O)CCN)S(C)(=O)=O)S(C)(=O)=O)S(=O)(=O)CCN)C(C)O)S(=O)(=O)CC(C)C)S(=O)(=O)CCN)S(=O)(=O)CC(C)C (some centres unmarked) [Peptide 5] | 2.71 µM | 2.43 µM | 132 ± 18.9 µM | 230 ± 27.5 µM |  | 1.97 µM |  |  |  |  |  |  |  |  |
| CCC(C)[C@@H](CN(CC(=O)N[C@@H](CC(C)C)CN(CC(=O)N[C@@H](CC(C)C)CN(CC(N)=O)S(=O)(=O)Cc1ccccc1)S(=O)(=O)CC(C)C)S(C)(=O)=O)NC(=O)CN(C[C@H](CCCNC(=N)N)NC(=O)CN(C[C@H](CC(C)C)NC(=O)CN(C[C@@H](NC(=O)CN(C[C@H](CC(C)C)NC(=O)CN(C[C@H](CCCNC(=N)N)NC(=O)CN(C[C@H](CCCNC(=N)N)NC(=O)CN(C[C@H](CCC(=O)O)NC(C)=O)S(=O)(=O)CCN)S(C)(=O)=O)S(C)(=O)=O)S(=O)(=O)CCN)C(C)O)S(=O)(=O)CC(C)C)S(=O)(=O)CCN)S(=O)(=O)CC(C)C (some centres unmarked) [Peptide 2] | 0.74 µM | 0.64 µM | 12.5 ± 2.86 µM | 39.9 ± 4.75 µM |  | 0.43 µM | 35.4 µM |  |  |  |  |  |  |  |
| CC(=O)N[C@@H](CCC(=O)O)CN(CC(=O)N[C@@H](CCCNC(=N)N)CN(CC(=O)N[C@@H](CCCNC(=N)N)CN(CC(=O)N[C@@H](CC(C)C)CN(CC(=O)N[C@H](CN(CC(=O)N[C@@H](CC(C)C)CN(CC(=O)N[C@@H](CCCNC(=N)N)CN(CC(=O)N[C@@H](C)CN(CC(=O)N[C@@H](CC(C)C)CN(CC(=O)N[C@@H](CC(C)C)CN(CC(N)=O)S(=O)(=O)Cc1ccccc1)S(=O)(=O)CC(C)C)S(C)(=O)=O)S(=O)(=O)CC(C)C)S(=O)(=O)CCN)S(=O)(=O)CC(C)C)C(C)O)S(=O)(=O)CCN)S(C)(=O)=O)S(C)(=O)=O)S(=O)(=O)CCN (some centres unmarked) [Peptide 6] | 0.54 µM | 0.46 µM | 65.4 ± 7.06 µM | 150 ± 19.2 µM |  | 0.16 µM |  | ~3 fold | ~3 fold | relatively weak activity | ~6 fold |  |  |  |
| CCC(C)[C@@H](CN(CC(=O)N[C@@H](CC(C)C)CN(CC(=O)N[C@@H](CC(C)C)CN(CC(N)=O)S(=O)(=O)Cc1ccccc1)S(=O)(=O)CC(C)C)S(C)(=O)=O)NC(=O)CN(C[C@H](CCCNC(=N)N)NC(=O)CN(C[C@H](CC(C)C)NC(=O)CN(C[C@@H](NC(=O)CN(C[C@H](CC(C)C)NC(=O)CN(C[C@H](CCCNC(=N)N)NC(=O)CN(C[C@H](C)NC(=O)CN(C[C@H](CCC(=O)O)NC(C)=O)S(=O)(=O)CCN)S(C)(=O)=O)S(C)(=O)=O)S(=O)(=O)CCN)C(C)O)S(=O)(=O)CC(C)C)S(=O)(=O)CCN)S(=O)(=O)CC(C)C (some centres unmarked) [Peptide 4] | 1.1 ± 0.14 µM | 0.98 ± 0.11 µM | 16.4 ± 4.4 µM | 43.2 ± 5.6 µM | about 1.5 fold | 0.82 µM | 20.6 µM |  |  |  |  | disrupted the β-catenin/BCL9 PPI in a dose-dependent manner |  |  |
| Ac-SQEQLEHRERSLQTLRDIQRMLF-NH2 [Peptide 1, reference compound] | 1.28 µM | 1.13 µM |  | > 200 µM |  | 0.97 µM |  |  |  |  |  |  | did not show any activity | > 200 µM |
| CCC(C)[C@@H](CN(CC(=O)N[C@@H](CC(C)C)CN(CC(=O)N[C@@H](CC(C)C)CN(CC(N)=O)S(=O)(=O)Cc1ccccc1)S(=O)(=O)CC(C)C)S(C)(=O)=O)NC(=O)CN(C[C@H](CCCNC(=N)N)NC(=O)CN(C[C@H](CC(C)C)NC(=O)CN(C[C@@H](NC(=O)CN(C[C@H](CC(C)C)NC(=O)CN(C[C@H](CCCNC(=N)N)NC(=O)CN(C[C@H](CCCNC(=N)N)NC(=O)CN(C[C@H](CCC(=O)O)NC(C)=O)S(C)(=O)=O)S(C)(=O)=O)S(C)(=O)=O)S(=O)(=O)CCN)C(C)O)S(=O)(=O)CC(C)C)S(=O)(=O)CCN)S(=O)(=O)CC(C)C (some centres unmarked) [Peptide 3] | 1.04 ± 0.21 µM | 0.92 ± 0.17 µM | 12.8 ± 2.9 µM | 43.7 ± 3.62 µM | about 1.5 fold | 0.86 µM | 26.5 µM |  |  |  |  |  |  |  |
